# Test results reported in article PMC7994622, “Eryptosis and Malaria: New Experimental Guidelines and Re-Evaluation of the Antimalarial Potential of Eryptosis Inducers” (Frontiers in Cellular and Infection Microbiology, 2021).
# “Also recorded” adds a separate entry of the source. Structures can show the parent of a compound that is named as a salt. Where two headings read alike, the source gives them in different places.
# How the values were obtained:
# naïve erythrocytes [1] = assay: Eryptosis assay by flow cytometry (PS exposure, cell size, intracellular calcium) on naïve erythrocytes; assay type: cell-based, human; settings: for Eryptosis hallmarks, naïve erythrocytes: 4 h in iRPMI, 1, 5, 10 μM (ionomycin 1 μM), PS exposure, cell size, intracellular calcium, hemolysis, significant changes
# Procedure: (§1) Use of human erythrocytes was approved by the La Trobe University Research Ethics Committee (ethics number HEC17‐013) and an Australian Red Cross Blood Service Agreement (Deed 19-05VIC-01). Red blood cell populations are intrinsically heterogeneous and variable between donors, therefore each experiment presented in this study was conducted a minimum of three independent times, each with a different batch of blood. Human red cells were processed as soon as possible upon collection to minimize erythrocyte aging. Naïve (non-infected) erythrocytes and Plasmodium falciparum 3D7-infected erythrocytes were cultured at 37°C, in low oxygen conditions (1% O2, 5% CO2, 94% N2), at 4% or 0.4% hematocrit, in incomplete RPMI media (iRPMI: RPMI 1640 HEPES, 50 mg/L hypoxanthine, 10 mg/L gentamicin, pH 6.74), complete RPMI media (cRPMI: incomplete RPMI supplemented with 2.25 g/L sodium bicarbonate and 5 g/L AlbuMAX II), or Ringer solution (1mM CaCl2, 5mM glucose, 32 mM HEPES pH 7.4, 5 mM KCl, 1mM MgSO4, 125mM NaCl). P. falciparum standard in vitro culture conditions were conducted as previously described ([Trager and Jensen, 1976]).
# (§2) Drug assays measuring eryptosis were carried out in 100 μl or 500 μl of culture when using 4% or 0.4% hematocrit conditions, respectively. DMSO, the vehicle, was used for the no-drug conditions. Cells were incubated at 37°C, in low oxygen conditions for 1 h to 48 h depending on the assay. Each experiment was performed in triplicate unless otherwise indicated and cells were analyzed by flow cytometry. […] Cells were washed in staining buffer (5 mM CaCl2, 5 mM glucose, 32 mM HEPES pH7.4, 5 mM KCl, 1 mM MgSO4, 125 mM NaCl), resuspended in 0.3 μM of intracellular calcium dye x-Rhod-1 AM (Invitrogen) and incubated in the dark at 37°C for 30 min. Subsequently, cells were washed in staining buffer and incubated with Annexin V-PE (1:20 dilution in staining buffer; BD Bioscience) at 37°C for 20 min in the dark for the staining of surface-exposed phosphatidylserine. Cells were resuspended in 200 μl staining buffer and analyzed within the hour using a CytoFLEX S flow cytometer (Beckman Coulter). 100,000 total events were recorded for each condition at a flow rate of 10 μl/min. Data were analyzed using FlowJo V10. For PS exposure measure, gating was set using data obtained with naïve erythrocytes DMSO control. Infected cells were gated using Hoechst fluorescence. The percentage of Annexin V-PE positive cells, the mean forward scatter height (FSC-H) and mean x-Rhod-1 fluorescence area (PE-A) were acquired for naïve and infected-erythrocytes.
# [2] = test system: P. falciparum-infected erythrocytes; assay: Eryptosis assay by flow cytometry on P. falciparum-infected erythrocytes; assay type: cell-based, human; settings: 4 h in iRPMI, 4% hematocrit, 1, 5, 10 μM (ionomycin 1 μM), PS exposure, cell size, intracellular calcium, hemolysis, significant changes
# Procedure: as §1, §2
# P. falciparum [3] = assay: Parasite growth inhibition assay (SYBR Gold, 72 h); assay type: cell-based, Plasmodium falciparum 3D7
# Procedure: as §1
# Compound-induced parasite growth inhibition was measured as previously described ([Morahan et al., 2020]). Briefly, an asynchronous parasite culture at 0.25% parasitemia and 2% hematocrit was incubated in a 96-well plate with a two-fold serial dilution of compound over 72 h in standard culture conditions (cRPMI, 37°C, low oxygen). Compounds (at 10 mM in DMSO) were added to the first well of the dilution series to produce a 50 µM drug concentration (and 0.5% (v/v) DMSO) and diluted two-fold until a concentration of 0.19 nM compound was reached. Each condition was conducted in triplicates, subject to a freeze/thaw cycle and incubated with the DNA intercalant SYBR Gold following manufacturer instructions (SYBR™ Gold Nucleic Acid Stain, Invitrogen). The average fluorescence between triplicates was measured at 495 nm using a CLARIOstar® microplate reader and analyzed as a proxy of parasite replication.
# naïve erythrocytes [4] = assay: Hemolysis assay (absorbance 405 nm) on naïve erythrocytes; assay type: cell-based, human; settings: 48 h
# Text: Absorbance of culture media alone was considered as baseline.
# erythrocytes = settings: cited from earlier work
# P. falciparum [5] = settings: cited from earlier work
# P. berghei = settings: cited from earlier work
# [6] = 1 μM, 1 h, iRPMI, 4% hematocrit
# [7] = Plasmodium falciparum, asynchronous culture, cRPMI, up to 50 µM, N=5, read-out: P. falciparum IC50
# [8] = asynchronous culture, cRPMI, up to 50 µM, N=5, read-out: P. falciparum IC50
structure (smiles),measurement,setting,value
"CC(C)(C)CC(C)(C)c1ccc(OCCOCC[N+](C)(C)Cc2ccccc2)cc1 [Benzethonium, benzethonium chloride]","Eryptosis hallmarks, naïve erythrocytes",naïve erythrocytes [1]; 4% hematocrit,Ns
same,"Eryptosis hallmarks, P. falciparum-infected erythrocytes",[2],Ns *
CCN(CC)CCCC(C)Nc1ccnc2cc(Cl)ccc12 (stereo not drawn) [chloroquine],IC50,"P. falciparum [3]; Plasmodium falciparum, read-out: P. falciparum IC50, asynchronous culture, cRPMI, 72 h",0.022 µM
"C[C@H](CCC(=O)O)C[C@H](C)C[C@H](C)C(=O)/C=C(\O)[C@H](C)C[C@H](C)C/C=C/[C@@H](C)[C@@H](O)[C@@H](C)[C@@H](O)C[C@@H]1CC[C@@](C)([C@H]2CC[C@@](C)([C@@H](C)O)O2)O1 [Ionomycin, ionomycin]",increase in PS exposure compared to the no-drug condition,"naïve erythrocytes [1]; 1 μM, 1 h, Ringer solution, 4% hematocrit",62 fold
same,PS exposure,"naïve erythrocytes [1]; 1 μM, 1 h, Ringer, 4% hematocrit",6.6%
same,PS exposure,naïve erythrocytes [1]; [6],4.4%
same,increase in PS exposure compared to the no-drug condition,naïve erythrocytes [1]; [6],45 fold
same,PS exposure,"naïve erythrocytes [1]; 1 μM, 24 h, Ringer+Albumax, 4% hematocrit",13.2%
same,PS exposure,"naïve erythrocytes [1]; 1 μM, 48 h, Ringer+Albumax, 4% hematocrit",22%
same,PS exposure,"naïve erythrocytes [1]; 1 μM, 48 h, Ringer, 4% hematocrit",24%
same,PS exposure,"naïve erythrocytes [1]; 1 μM, 48 h, iRPMI+Albumax, 4% hematocrit",15%
same,PS exposure,"naïve erythrocytes [1]; 1 μM, 48 h, iRPMI+Albumax, 4% hematocrit, listed as ionomycin",14.6%
same,PS exposure,"naïve erythrocytes [1]; 1 μM, 48 h, iRPMI, 4% hematocrit",23%
same,"Eryptosis hallmarks, naïve erythrocytes",naïve erythrocytes [1]; 4% hematocrit,↑ PS exposure ↓ Cell Size (1 μM)
same,"Eryptosis hallmarks, naïve erythrocytes","naïve erythrocytes [1]; 4% hematocrit, listed as ionomycin",significant increase of PS exposure and a decrease in cell size
same,"Eryptosis hallmarks, P. falciparum-infected erythrocytes",[2],↑ PS exposure ↓ Cell Size (1 μM)
same,"Eryptosis hallmarks, P. falciparum-infected erythrocytes",[2]; listed as ionomycin,significant increase of PS exposure and a decrease in cell size
same,hemolysis,"naïve erythrocytes [4]; 1 μM, Ringer or iRPMI with addition of Albumax, 4% hematocrit",abolish ionomycin-induced hemolysis
same,hemolysis (OD405),"naïve erythrocytes [4]; 1 μM, Ringer, 4% hematocrit",20.5
same,hemolysis (OD405),"naïve erythrocytes [4]; 1 μM, iRPMI, 4% hematocrit",5.5
"CNC(=O)c1cc(Oc2ccc(NC(=O)Nc3ccc(Cl)c(C(F)(F)F)c3)cc2)ccn1 [BAY 43-9006, Sorafenib]",IC50,P. falciparum [3]; [7],< 10 µM
same,IC50,P. falciparum [3]; [8],7.48 µM
same,percentage of PS-exposing cells,"naïve erythrocytes [1]; 10 µM, 48 h, Ringer solution, 0.4% hematocrit",41%
same,percentage of PS-exposing cells,"naïve erythrocytes [1]; 10 µM, 48 h, Ringer solution, 4% hematocrit",10%
same,PS exposure,"naïve erythrocytes [1]; 10 µM, 48 h, cRPMI, 4% hematocrit",no significant increase
same,"Eryptosis hallmarks, naïve erythrocytes",naïve erythrocytes [1]; 4% hematocrit,Ns
same,"Eryptosis hallmarks, P. falciparum-infected erythrocytes",[2],Ns
same,hemolysis,"naïve erythrocytes [4]; 10 µM, Ringer, 0.4% hematocrit",significantly induced hemolysis
same,hemolysis,"naïve erythrocytes [4]; 10 µM, Ringer, 4% hematocrit",not
same,hemolysis,"naïve erythrocytes [4]; 10 µM, cRPMI, 4% hematocrit",not
"CCCCc1oc2ccccc2c1C(=O)c1cc(I)c(OCCN(CC)CC)c(I)c1 [Amiodarone, amiodarone HCl]",Published eryptosis induction concentration,"erythrocytes; naïve erythrocytes, ref Nicolay et al., 2007","5 µM, ([Nicolay et al., 2007])"
same,Published eryptosis induction concentration,"erythrocytes; naïve erythrocytes, ref Nicolay et al., 2007, listed as amiodarone",5 µM
same,"Eryptosis hallmarks, naïve erythrocytes",naïve erythrocytes [1]; 4% hematocrit,↑ Calcium (5 μM)
same,"Eryptosis hallmarks, P. falciparum-infected erythrocytes",[2],Ns
same,Effect on P. falciparum: parasitemia,"P. falciparum [5]; Pf in vitro, ref Bobbala et al., 2010b",Reduced parasitemia
same,Effect on P. berghei: parasitemia,"P. berghei; Pb in vivo, ref Bobbala et al., 2010b",Reduced parasitemia
same,Effect on P. berghei: mice survival,"P. berghei; Pb, ref Bobbala et al., 2010b",increased mice survival
"Nc1ncnc2c1ncn2[C@@H]1O[C@H](CO)C[C@H]1O [Cordycepin, cordycepin]",Published eryptosis induction concentration,"erythrocytes; mouse erythrocytes, ref Lui et al., 2007","31 µM, ([Lui et al., 2007])"
same,Published eryptosis induction concentration,"erythrocytes; mouse erythrocytes, ref Lui et al., 2007, listed as cordycepin",31 µM
same,IC50,P. falciparum [3]; [7],12 µM
same,IC50,"P. falciparum [3]; asynchronous culture, cRPMI, up to 50 µM, N=5, listed as cordycepin, read-out: P. falciparum IC50",> 10 µM
same,IC50,P. falciparum [3]; [8],12.1 µM
same,"Eryptosis hallmarks, naïve erythrocytes",naïve erythrocytes [1]; 4% hematocrit,Ns
same,"Eryptosis hallmarks, P. falciparum-infected erythrocytes",[2],Ns
C[C@@H]1CC[C@H]2[C@@H](C)C(=O)O[C@@H]3O[C@@]4(C)CC[C@@H]1[C@]32OO4 [artemisinin],IC50,"P. falciparum [3]; Plasmodium falciparum, asynchronous culture, cRPMI, read-out: P. falciparum IC50",0.012 µM
"O=c1cc(-c2ccc(O)cc2)oc2cc(O)cc(O)c12 [Apigenin, apigenin]",Published eryptosis induction concentration,"erythrocytes; naïve erythrocytes, ref Zbidah et al., 2012","15 µM, ([Zbidah et al., 2012])"
same,Published eryptosis induction concentration,"erythrocytes; naïve erythrocytes, ref Zbidah et al., 2012, listed as apigenin",15 µM
same,IC50,P. falciparum [3]; [8],65.8 µM
same,"Eryptosis hallmarks, naïve erythrocytes",naïve erythrocytes [1]; 4% hematocrit,Ns
same,"Eryptosis hallmarks, P. falciparum-infected erythrocytes",[2],Ns
same,IC50,"P. falciparum [5]; in vitro, ref Fallatah and Georges, 2017, read-out: P. falciparum IC50, previously published",36 µM
same,Effect on P. berghei: parasitemia,"P. berghei; Pb, ref Amiri et al., 2018","Decreased parasitemia (Pb) ([Amiri et al., 2018])"
"C=C1C(=O)[C@]23[C@H](O)[C@H]1CC[C@H]2[C@@]12CO[C@]3(O)[C@@H](O)[C@@H]1C(C)(C)CC[C@@H]2O [Oridonin, oridonin]",Published eryptosis induction concentration,"erythrocytes; naïve erythrocytes, ref Jilani et al., 2011","25 µM, ([Jilani et al., 2011])"
same,Published eryptosis induction concentration,"erythrocytes; naïve erythrocytes, ref Jilani et al., 2011, listed as oridonin",25 µM
same,IC50,P. falciparum [3]; [7],~2 µM
same,IC50,P. falciparum [3]; [8],≤ 2 µM
same,"Eryptosis hallmarks, naïve erythrocytes",naïve erythrocytes [1]; 4% hematocrit,Ns
same,"Eryptosis hallmarks, naïve erythrocytes","naïve erythrocytes [1]; 4% hematocrit, listed as oridonin",did not induce statistically significant changes; also recorded: no significant increase
same,"Eryptosis hallmarks, P. falciparum-infected erythrocytes",[2],Ns
same,"Eryptosis hallmarks, P. falciparum-infected erythrocytes",[2]; listed as oridonin,did not induce statistically significant changes; also recorded: no significant increase
